# From US9079876B2, “Imidazole derivatives and preparation method and use thereof” (Beijing Orbiepharm Co., Ltd., priority 2010, dated 2015)
# Columns and labels:
# COX-1 = target: T1, COX-1 (Canis lupus familiaris, UniProt Q8HZR1); experiment: Dog whole blood in vitro activity assay, COX-1; assay type: cell-based, beagle dog; details: read-out: IC50 (μg/mL) COX-1 (converted)
# T1 construct: in vitro activity study using beagle dog whole blood was conducted; from tissue; host or cells: beagle dog whole blood (platelets, by the same method as for human blood)
# T1 sequence (Q8HZR1 28-603): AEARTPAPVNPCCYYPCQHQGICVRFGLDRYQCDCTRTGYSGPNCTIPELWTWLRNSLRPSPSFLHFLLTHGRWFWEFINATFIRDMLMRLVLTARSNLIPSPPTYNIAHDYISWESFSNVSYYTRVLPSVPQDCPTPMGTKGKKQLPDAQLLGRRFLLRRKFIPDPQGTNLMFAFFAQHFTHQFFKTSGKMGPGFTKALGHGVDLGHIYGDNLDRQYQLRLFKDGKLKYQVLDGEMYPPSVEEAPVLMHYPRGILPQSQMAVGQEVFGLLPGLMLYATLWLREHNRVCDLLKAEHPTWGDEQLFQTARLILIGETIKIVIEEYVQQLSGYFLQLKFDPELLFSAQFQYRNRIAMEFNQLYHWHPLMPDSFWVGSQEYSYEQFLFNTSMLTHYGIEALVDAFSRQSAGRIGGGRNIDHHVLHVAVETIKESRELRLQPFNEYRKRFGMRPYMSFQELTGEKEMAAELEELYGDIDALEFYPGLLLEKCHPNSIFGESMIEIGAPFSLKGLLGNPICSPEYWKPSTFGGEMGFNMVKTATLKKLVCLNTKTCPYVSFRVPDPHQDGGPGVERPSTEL
# [1] = system: rat paw swelling induced by carrageenan; experiment: Rat paw swelling induced by carrageenan (inflammation model); assay type: in vivo, Wistar rats
# Protocol: In vivo test: observation of the effect of compound 1 on rat paw swelling induced by carrageenan (inflammation model evaluation)
# 50 rats were randomized into 5 groups, with 10 animals in each group.
# The total volume prepared for each dose group was determined based on the actual weight of the animals. A corresponding volume of purified water was taken, and was added with a sample of the test compounds or of the positive control, to allow homogenous dispersion. Sodium carboxymethyl cellulose was subsequently added, to make a homogenous suspension without obvious agglomerates.
# Methods: 50 Wistar rats ([…], 167-199 g) were used in the study, with 25 males and 25 females. They were randomized into 5 groups, i.e. model group, positive control group, compound 1: low, middle and high dose groups. […] 1 hour after intragastric administration, 0.1 ml 1% carrageenan was intradermally injected in the right hind plantar paw to induce inflammation. After induction of inflammation, paw plantar volume and paw thickness were measured every another hour, consecutively for six times. Paw swelling rate (%) and inhibition rate (%) were calculated.
# Assay methods: volume of the rat right paw was determined using UGO Basile plethysmograph, and the liquid level was kept constant for in the same animal in each measurement; thickness of the right hind paw were measured at the depiction line in the central paw with a digital vernier caliper.
# The group mean and standard deviation of paw swelling rate in each group of animals were calculated, and then the following statistical analysis was performed. The test level was 0.05, and both statistical significance and biological significance were considered in the result analysis.
# Levene's Test was used for homogeneity of variance test. Single-factor analysis of variance (ANOVA) was used for statistical analysis, if no statistical significance (P>0.05) was found. Dunnett's test (parametric method) analysis was used for multiple comparison analysis, if ANOVA found statistical significance (P≦0.05).
# If there was heterogeneity of variance (P≦0.05), then the Kruskal-Wallis test was used. If the test result of Kruskal-Wallis test was statistically significant (P<0.05), then Dunnett's test (non-parametric method) was used for multiple comparison analysis.
# [2] = 7 mg/kg intragastric, 1 h after inflammation
# [3] = 7 mg/kg intragastric, 2 h after inflammation
# [4] = 7 mg/kg intragastric, 3 h after inflammation
# [5] = 7 mg/kg intragastric, 4 h after inflammation
# [6] = 7 mg/kg intragastric, 5 h after inflammation
# [7] = 7 mg/kg intragastric, 6 h after inflammation
# [8] = 10 mg/kg intragastric, 1 h after inflammation
# [9] = 10 mg/kg intragastric, 2 h after inflammation
# [10] = 10 mg/kg intragastric, 3 h after inflammation
# [11] = 10 mg/kg intragastric, 4 h after inflammation
# [12] = 10 mg/kg intragastric, 5 h after inflammation
# [13] = 10 mg/kg intragastric, 6 h after inflammation
# [14] = 14 mg/kg intragastric, 1 h after inflammation
# [15] = 14 mg/kg intragastric, 2 h after inflammation
# [16] = 14 mg/kg intragastric, 3 h after inflammation
# [17] = 14 mg/kg intragastric, 4 h after inflammation
# [18] = 14 mg/kg intragastric, 5 h after inflammation
# [19] = 14 mg/kg intragastric, 6 h after inflammation
smiles,measurement,setting,value
"CS(=O)(=O)c1ccc(-n2cnc(Cl)c2-c2ccccc2)nc1 [Compound 1, 2-(4-chloro-5-phenyl-1H-imidazol-1-yl)-5-(methylsulfonyl)pyridine]",IC50,COX-1,219 µM
same,inhibition rate of plantar paw thickness swelling,[1]; [2],27.44%
same,inhibition rate of plantar paw volume swelling,[1]; [2],0.00%
same,plantar paw thickness swelling rate,[1]; [2],7.97 ± 3.84%
same,plantar paw volume swelling rate,[1]; [2],11.62 ± 4.73%
same,inhibition rate of plantar paw thickness swelling,[1]; [3],63.92%
same,inhibition rate of plantar paw volume swelling,[1]; [3],27.91%
same,plantar paw thickness swelling rate,[1]; [3],5.72 ± 4.27 %
same,plantar paw volume swelling rate,[1]; [3],12.62 ± 4.15%
same,inhibition rate of plantar paw thickness swelling,[1]; [4],76.74%
same,inhibition rate of plantar paw volume swelling,[1]; [4],43.96%
same,plantar paw thickness swelling rate,[1]; [4],4.01 ± 3.33 %
same,plantar paw volume swelling rate,[1]; [4],11.87 ± 3.62 %
same,inhibition rate of plantar paw thickness swelling,[1]; [5],77.45%
same,inhibition rate of plantar paw volume swelling,[1]; [5],58.90%
same,plantar paw thickness swelling rate,[1]; [5],4.29 ± 4.47 %
same,plantar paw volume swelling rate,[1]; [5],11.14 ± 3.73 %
same,inhibition rate of plantar paw thickness swelling,[1]; [6],85.81%
same,inhibition rate of plantar paw volume swelling,[1]; [6],55.32%
same,plantar paw thickness swelling rate,[1]; [6],2.68 ± 3.82 %
same,plantar paw volume swelling rate,[1]; [6],12.53 ± 5.03 %
same,inhibition rate of plantar paw thickness swelling,[1]; [7],89.21%
same,inhibition rate of plantar paw volume swelling,[1]; [7],57.59%
same,plantar paw thickness swelling rate,[1]; [7],1.67 ± 4.28 %
same,plantar paw volume swelling rate,[1]; [7],11.75 ± 4.71 %
same,inhibition rate of plantar paw thickness swelling,[1]; [8],0.00%
same,inhibition rate of plantar paw volume swelling,[1]; [8],0.00%
same,plantar paw thickness swelling rate,[1]; [8],12.91 ± 4.89%
same,plantar paw volume swelling rate,[1]; [8],12.48 ± 5.01%
same,inhibition rate of plantar paw thickness swelling,[1]; [9],50.35%
same,inhibition rate of plantar paw volume swelling,[1]; [9],6.86%
same,plantar paw thickness swelling rate,[1]; [9],7.87 ± 3.91 %
same,plantar paw volume swelling rate,[1]; [9],16.30 ± 5.55%
same,inhibition rate of plantar paw thickness swelling,[1]; [10],60.54%
same,inhibition rate of plantar paw volume swelling,[1]; [10],24.73%
same,plantar paw thickness swelling rate,[1]; [10],6.80 ± 3.68 %
same,plantar paw volume swelling rate,[1]; [10],15.95 ± 5.92%
same,inhibition rate of plantar paw thickness swelling,[1]; [11],69.63%
same,inhibition rate of plantar paw volume swelling,[1]; [11],45.15%
same,plantar paw thickness swelling rate,[1]; [11],5.78 ± 3.69 %
same,plantar paw volume swelling rate,[1]; [11],14.87 ± 5.07 %
same,inhibition rate of plantar paw thickness swelling,[1]; [12],71.80%
same,inhibition rate of plantar paw volume swelling,[1]; [12],44.78%
same,plantar paw thickness swelling rate,[1]; [12],5.32 ± 3.99 %
same,plantar paw volume swelling rate,[1]; [12],15.48 ± 5.58 %
same,inhibition rate of plantar paw thickness swelling,[1]; [13],66.63%
same,inhibition rate of plantar paw volume swelling,[1]; [13],43.68%
same,plantar paw thickness swelling rate,[1]; [13],5.16 ± 3.94 %
same,plantar paw volume swelling rate,[1]; [13],15.61 ± 7.62 %
same,inhibition rate of plantar paw thickness swelling,[1]; [14],33.98%
same,inhibition rate of plantar paw volume swelling,[1]; [14],0.77%
same,plantar paw thickness swelling rate,[1]; [14],7.25 ± 4.10%
same,plantar paw volume swelling rate,[1]; [14],10.82 ± 4.28%
same,inhibition rate of plantar paw thickness swelling,[1]; [15],67.67%
same,inhibition rate of plantar paw volume swelling,[1]; [15],30.59%
same,plantar paw thickness swelling rate,[1]; [15],5.12 ± 3.74 %
same,plantar paw volume swelling rate,[1]; [15],12.15 ± 5.20%
same,inhibition rate of plantar paw thickness swelling,[1]; [16],77.77%
same,inhibition rate of plantar paw volume swelling,[1]; [16],42.44%
same,plantar paw thickness swelling rate,[1]; [16],3.83 ± 2.59 %
same,plantar paw volume swelling rate,[1]; [16],12.20 ± 5.19 %
same,inhibition rate of plantar paw thickness swelling,[1]; [17],79.53%
same,inhibition rate of plantar paw volume swelling,[1]; [17],48.46%
same,plantar paw thickness swelling rate,[1]; [17],3.90 ± 3.54 %
same,plantar paw volume swelling rate,[1]; [17],13.97 ± 6.25 %
same,inhibition rate of plantar paw thickness swelling,[1]; [18],86.47%
same,inhibition rate of plantar paw volume swelling,[1]; [18],53.52%
same,plantar paw thickness swelling rate,[1]; [18],2.55 ± 2.95 %
same,plantar paw volume swelling rate,[1]; [18],13.03 ± 4.88 %
same,inhibition rate of plantar paw thickness swelling,[1]; [19],84.04%
same,inhibition rate of plantar paw volume swelling,[1]; [19],59.93%
same,plantar paw thickness swelling rate,[1]; [19],2.47 ± 2.70 %
same,plantar paw volume swelling rate,[1]; [19],11.10 ± 4.42 %
same,inhibition of the paw swelling rate,"[1]; low, middle and high dose groups (7, 10, 14 mg/kg), 4 hours after inflammation",above 30%
